Experimental data taken from US20050239656A1, “Pyridine compounds or salts thereof and herbicides containing the same” (priority 2002, published 2005).

How the values were obtained:
crabgrass [1] = test: Test Example 2: soil surface treatment, upland pot test; assay type: in vivo, Digitaria sanguinalis L.; settings: observed 20th to 28th day
Procedure, shortened: (§1)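 Pre-emergence: the soil surface was sprayed 1 day after sowing with wettable powder or emulsifiable concentrate diluted in water at 1,500 L/ha, at a predetermined active ingredient amount. Growth control was scored visually 20–28 days after treatment, 0 (untreated) to 100 (complete kill).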

rice [2] = test: as above; assay type: in vivo, Oryza sativa L.; settings: observed 20th to 28th day
Procedure, shortened: as §1

rice (var. Nihonbare) = test: Test Example 3: paddy pot test, transplanted rice; assay type: in vivo, Oryza sativa L.; settings: applied 4th day after transplantation, visually observed 21st day after application, 0 = non-treated, 100 = complete kill
Procedure, shortened: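 Rice (2-leaf stage) was transplanted 3 cm deep into puddled, leveled paddy soil under 3–4 cm flooding. On day 4 after transplanting, diluted wettable powder or emulsifiable concentrate was pipetted onto the water at a predetermined active-ingredient dose. Growth control (0 = untreated, 100 = complete kill) was scored visually 21 days later.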

barnyardgrass [3] = test: Test Example 3: paddy pot test, application under submerged conditions; assay type: in vivo, Echinochloa crus-galli L.; settings: submerged application at 0.5 leaf stage, visually observed 14 days after application, 0 = non-treated, 100 = complete kill
Procedure, shortened: (§2)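 Seeds were sown in flooded paddy soil (0.5–1 cm water), wapato tubers were planted 1–2 days later, and water was then held at 3–4 cm. Diluted wettable powder or emulsifiable concentrate was pipetted into the water at the 0.5 leaf or primary leaf stage. Growth control was visually scored at 14 days (0–100%).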

redroot pigweed [4] = test: Test Example 1: foliage treatment, upland pot test; assay type: in vivo, Amaranthus retroflexus L.; settings: active ingredient 500 g/ha, observed 18th to 23rd day, 0 = non-treated, 100 = complete kill
velvetleaf [5] = test: Test Example 2: soil surface treatment, upland pot test; assay type: in vivo, Abutilon theophrasti MEDIC.; settings: observed 20th to 28th day
Procedure, shortened: as §1

wheat [6] = test: Test Example 1: foliage treatment, upland pot test; assay type: in vivo, Triticum spp.; settings: crop, active ingredient 500 g/ha, observed 18th to 23rd day, 0 = non-treated, 100 = complete kill
Description: Upland field soil was put into a 1/170,000 ha pot, and seed of various plants were sown. Then, when the plants reached predetermined leaf stages ((1) barnyardgrass: 1.3 to 2.8 leaf stages, (2) crabgrass: 1.0 to 2.8 leaf stages, (3) green foxtail: 1.3 to 2.6 leaf stages, (4) redroot pigweed: 0.1 to 1.2 leaf stages, (5) prickly sida: 0.1 to 1.2 leaf stages, (6) velvetleaf: 0.1 to 1.2 leaf stages, (7) tall morningglory: 0.1 to 1.5 leaf stages, (8) rice: 1.2 to 2.6 leaf stages, (9) wheat: 1.3 to 2.4 leaf stages, (10) corn, 2.1 to 3.2 leaf stages, (11) soybean: 0.1 to 0.4 leaf stage), a wettable powder or emulsifiable concentrate having the compound of the present invention formulated in accordance with a usual formulation method, was weighed so that the active ingredient would be a predetermined amount, and diluted with water in an amount of 500 L/ha. To the diluted solution, 0.1% (v/v) of agricultural spreader was added. The herbicide thus adjusted was applied by a small size sprayer for foliage treatment. On the 18th to 23rd days after the application of the herbicide, the growth of the respective plants was visually observed, and the herbicidal effects were evaluated by the growth controlling degrees (%) ranging from 0 (equivalent to the non-treated plot) to 100 (complete kill), whereby the results shown in Table 3, were obtained.

crabgrass [7] = test: Test Example 1: foliage treatment, upland pot test; assay type: in vivo, Digitaria sanguinalis L.; settings: active ingredient 500 g/ha, observed 18th to 23rd day, 0 = non-treated, 100 = complete kill
soybean [8] = test: Test Example 1: foliage treatment, upland pot test; assay type: in vivo, Glycine max Merr.; settings: crop, active ingredient 500 g/ha, observed 18th to 23rd day, 0 = non-treated, 100 = complete kill
Procedure, shortened: (§3)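 Applied as a post-emergence foliar spray: formulated compound diluted to 500 L/ha with spreader at 0.1% (v/v). Treatment timing—rice at 1.2–2.6, wheat at 1.3–2.4, barnyardgrass at 1.3–2.8, soybean at 0.1–0.4 leaf stage. Scored visually on a 0–100% control scale after 18–23 days.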

corn [9] = test: Test Example 1: foliage treatment, upland pot test; assay type: in vivo, Zea mays L.; settings: crop, active ingredient 500 g/ha, observed 18th to 23rd day, 0 = non-treated, 100 = complete kill
Procedure, shortened: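 Corn seeds were sown in upland field soil held in a 1/170,000 ha pot and grown to the 2.1 to 3.2 leaf stage. A wettable powder or emulsifiable concentrate of the test compound was diluted with water at 500 L/ha, given 0.1% (v/v) agricultural spreader, and sprayed onto the foliage with a small sprayer. Growth controlling degree (%) was scored visually 18th to 23rd days later, from 0 (non-treated) to 100 (complete kill).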

barnyardgrass [10] = test: Test Example 1: foliage treatment, upland pot test; assay type: in vivo, Echinochloa crus-galli L.; settings: active ingredient 500 g/ha, observed 18th to 23rd day, 0 = non-treated, 100 = complete kill
Procedure, shortened: as §3

japanese bulrush = test: Test Example 3: paddy pot test, application under submerged conditions; assay type: in vivo, Scirpus juncoides; settings: submerged application at 0.5 leaf stage, visually observed 14 days after application, 0 = non-treated, 100 = complete kill
Procedure, shortened: as §2

prickly sida [11] = test: Test Example 2: soil surface treatment, upland pot test; assay type: in vivo, Sida spinosa L.; settings: observed 20th to 28th day
Procedure, shortened: as §1

barnyardgrass [12] = test: as above; assay type: in vivo, Echinochloa crus-galli L.; settings: observed 20th to 28th day
Procedure, shortened: as §1

rice [13] = test: Test Example 1: foliage treatment, upland pot test; assay type: in vivo, Oryza sativa L.; settings: crop, active ingredient 500 g/ha, observed 18th to 23rd day, 0 = non-treated, 100 = complete kill
Procedure, shortened: as §3

wheat [14] = test: Test Example 2: soil surface treatment, upland pot test; assay type: in vivo, Triticum spp.; settings: observed 20th to 28th day
Procedure, shortened: as §1

green foxtail [15] = test: as above; assay type: in vivo, Setaria viridis L.; settings: observed 20th to 28th day
Procedure, shortened: as §1

redroot pigweed [16] = test: as above; assay type: in vivo, Amaranthus retroflexus L.; settings: observed 20th to 28th day
Procedure, shortened: as §1

prickly sida [17] = test: Test Example 1: foliage treatment, upland pot test; assay type: in vivo, Sida spinosa L.; settings: active ingredient 500 g/ha, observed 18th to 23rd day, 0 = non-treated, 100 = complete kill
corn [18] = test: Test Example 2: soil surface treatment, upland pot test; assay type: in vivo, Zea mays L.; settings: observed 20th to 28th day
Procedure, shortened: as §1

green foxtail [19] = test: Test Example 1: foliage treatment, upland pot test; assay type: in vivo, Setaria viridis L.; settings: active ingredient 500 g/ha, observed 18th to 23rd day, 0 = non-treated, 100 = complete kill
velvetleaf [20] = test: Test Example 1: foliage treatment, upland pot test; assay type: in vivo, Abutilon theophrasti MEDIC.; settings: active ingredient 500 g/ha, observed 18th to 23rd day, 0 = non-treated, 100 = complete kill
soybean [21] = test: Test Example 2: soil surface treatment, upland pot test; assay type: in vivo, Glycine max Merr.; settings: observed 20th to 28th day
Procedure, shortened: as §1

japanese ribbon wapato = test: Test Example 3: paddy pot test, application under submerged conditions; assay type: in vivo, Sagittaria pygniaea; settings: active ingredient 500 g/ha; submerged application at primary leaf stage; visually observed 14 days after application; 0 = non-treated, 100 = complete kill
Procedure, shortened: as §2

Structure (SMILES)	Growth controlling degree (%) Rice (rice (var. Nihonbare); active ingredient 250 g/ha)	Growth controlling degree (%) Barnyardgrass (barnyardgrass [3]; active ingredient 250 g/ha)	Growth controlling degree (%) Redroot pigweed (redroot pigweed [4])	Growth controlling degree (%) wheat (wheat [6])	Growth controlling degree (%) Crabgrass (crabgrass [7])	Growth controlling degree (%) Soybean (soybean [8])	Growth controlling degree (%) Corn (corn [9])	Growth controlling degree (%) Barnyardgrass (barnyardgrass [10])	Growth controlling degree (%) Japanese bulrush (japanese bulrush; active ingredient 250 g/ha)	Growth controlling degree (%) Rice (rice [13])	Growth controlling degree (%) Prickly sida (prickly sida [17])	Growth controlling degree (%) Green foxtail (green foxtail [19])	Growth controlling degree (%) Velvetleaf (velvetleaf [20])	Growth controlling degree (%) Crabgrass (crabgrass [1]; active ingredient 500 g/ha)	Growth controlling degree (%) Rice (rice [2]; active ingredient 500 g/ha)	Growth controlling degree (%) Velvetleaf (velvetleaf [5]; active ingredient 500 g/ha)	Growth controlling degree (%) Prickly sida (prickly sida [11]; active ingredient 500 g/ha)	Growth controlling degree (%) Barnyardgrass (barnyardgrass [12]; active ingredient 500 g/ha)	Growth controlling degree (%) Redroot pigweed (redroot pigweed [16]; active ingredient 500 g/ha)	Growth controlling degree (%) Corn (corn [18]; active ingredient 500 g/ha)	also measured
CC(C)CC(=O)N(C)C(c1cnccc1C(F)(F)F)C(C)C (centres unmarked) [I-193]	30%	100%	80%	80%	90%	80%	80%	95%	95%	80%	90%	80%	60%								Growth controlling degree (%) Crabgrass (crabgrass [1]; active ingredient 250 g/ha): 100%; Growth controlling degree (%) Rice (rice [2]; active ingredient 250 g/ha): 80%; Growth controlling degree (%) Velvetleaf (velvetleaf [5]; active ingredient 250 g/ha): 10%; Growth controlling degree (%) Prickly sida (prickly sida [11]; active ingredient 250 g/ha): 80%; Growth controlling degree (%) Barnyardgrass (barnyardgrass [12]; active ingredient 250 g/ha): 100%; Growth controlling degree (%) wheat (wheat [14]; active ingredient 250 g/ha): 60%; Growth controlling degree (%) Green foxtail (green foxtail [15]; active ingredient 250 g/ha): 100%; Growth controlling degree (%) Redroot pigweed (redroot pigweed [16]; active ingredient 250 g/ha): 10%; Growth controlling degree (%) Corn (corn [18]; active ingredient 250 g/ha): 70%; Growth controlling degree (%) Soyabean (soybean [21]; active ingredient 250 g/ha): 10%
CCCCC(=O)N(C)C(c1cnccc1C(F)(F)F)C(C)C (centres unmarked) [I-199]	40%	100%	60%	50%	80%	60%	60%	70%	98%	50%	70%	70%	60%								Growth controlling degree (%) Crabgrass (crabgrass [1]; active ingredient 250 g/ha): 100%; Growth controlling degree (%) Rice (rice [2]; active ingredient 250 g/ha): 90%; Growth controlling degree (%) Velvetleaf (velvetleaf [5]; active ingredient 250 g/ha): 50%; Growth controlling degree (%) Prickly sida (prickly sida [11]; active ingredient 250 g/ha): 80%; Growth controlling degree (%) Barnyardgrass (barnyardgrass [12]; active ingredient 250 g/ha): 100%; Growth controlling degree (%) wheat (wheat [14]; active ingredient 250 g/ha): 50%; Growth controlling degree (%) Green foxtail (green foxtail [15]; active ingredient 250 g/ha): 100%; Growth controlling degree (%) Redroot pigweed (redroot pigweed [16]; active ingredient 250 g/ha): 70%; Growth controlling degree (%) Soyabean (soybean [21]; active ingredient 250 g/ha): 20%
CC(C)C(c1cnccc1C(F)(F)F)N(C)C(=O)Cc1csc2ccccc12 (centres unmarked) [I-192]			80%	0%		80%		80%		10%	90%	60%	70%	80%	10%	0%	0%	98%	10%	10%	Growth controlling degree (%) Rice (rice (var. Nihonbare); active ingredient 500 g/ha): 30%; Growth controlling degree (%) Barnyardgrass (barnyardgrass [3]; active ingredient 500 g/ha): 100%; Growth controlling degree (%) Japanese bulrush (japanese bulrush; active ingredient 500 g/ha): 90%; Growth controlling degree (%) wheat (wheat [14]; active ingredient 500 g/ha): 0%; Growth controlling degree (%) Green foxtail (green foxtail [15]; active ingredient 500 g/ha): 80%
CC(Oc1ccc(Br)cc1)C(=O)N(C)C(c1cnccc1C(F)(F)F)C(C)C (mixture of isomers) [I-132]	20%	100%	70%	10%	90%	80%	80%	70%	80%	10%	80%	60%	60%	90%	10%	0%	70%	98%	10%	0%	Growth controlling degree (%) wheat (wheat [14]; active ingredient 500 g/ha): 10%; Growth controlling degree (%) Soyabean (soybean [21]; active ingredient 500 g/ha): 10%
C=CC(=O)N(C)C(c1cnccc1C(F)(F)F)C(C)C (centres unmarked) [I-190]			70%	70%	80%	60%	70%	80%		70%	70%	80%	60%	100%	98%	50%	90%	100%	80%	10%	Growth controlling degree (%) Rice (rice (var. Nihonbare); active ingredient 500 g/ha): 95%; Growth controlling degree (%) Barnyardgrass (barnyardgrass [3]; active ingredient 500 g/ha): 100%; Growth controlling degree (%) Japanese bulrush (japanese bulrush; active ingredient 500 g/ha): 98%; Growth controlling degree (%) Japanese ribbon wapato (japanese ribbon wapato): 90%; Growth controlling degree (%) Green foxtail (green foxtail [15]; active ingredient 500 g/ha): 100%; Growth controlling degree (%) Soyabean (soybean [21]; active ingredient 500 g/ha): 30%
